A short description of this data set: xn = mol fraction of the nth substance listed. The note with it: Fluid (supercritical or subcritical phases), Taylor dispersion method, x1 = 0.

This note sets out measurements from the NIST ThermoML archive (doi:10.1021/je700646e).

As to `C=CCc1ccc(O)c(OC)c1` [2-hydroxy-5-allylanisole] + O=C=O, the binary diffusion coefficient worked out at 9.29e-09 m2/s (313.16 K, 15000 kPa); 7.69e-09 m2/s (313.16 K, 20000 kPa); 6.96e-09 m2/s (313.16 K, 25000 kPa); 6.37e-09 m2/s (313.16 K, 30000 kPa); 6.1e-09 m2/s (313.16 K, 35000 kPa); 1.14e-08 m2/s (323.16 K, 15000 kPa). In addition, the binary diffusion coefficient (323.16 K, 20000 kPa) turned out to be 9.08e-09 m2/s; the binary diffusion coefficient (323.16 K, 25000 kPa) was determined as 8.03e-09 m2/s; the binary diffusion coefficient (323.16 K, 30000 kPa) came to 7.39e-09 m2/s; the binary diffusion coefficient (323.16 K, 35000 kPa) turned out to be 6.91e-09 m2/s; the binary diffusion coefficient (333.16 K, 15000 kPa) turned out to be 1.21e-08 m2/s; the binary diffusion coefficient (333.16 K, 20000 kPa) was 1.04e-08 m2/s. The binary diffusion coefficient reads like this: (333.16 K, 25000 kPa) 9.19e-09 m2/s; (333.16 K, 30000 kPa) 8.32e-09 m2/s; (333.16 K, 35000 kPa) 7.9e-09 m2/s.
For `CC(=O)CCc1ccccc1` [4-phenyl-2-butanone] + O=C=O, the binary diffusion coefficient reads like this: (313.16 K, 15000 kPa) 8.97e-09 m2/s; (313.16 K, 20000 kPa) 8.05e-09 m2/s; (313.16 K, 25000 kPa) 7.39e-09 m2/s; (313.16 K, 30000 kPa) 6.95e-09 m2/s; (313.16 K, 35000 kPa) 6.58e-09 m2/s; (323.16 K, 15000 kPa) 1.06e-08 m2/s. Besides, the binary diffusion coefficient was found to be 9.25e-09 m2/s (323.16 K, 20000 kPa); 8.65e-09 m2/s (323.16 K, 25000 kPa); 7.83e-09 m2/s (323.16 K, 30000 kPa); 7.5e-09 m2/s (323.16 K, 35000 kPa); 1.15e-08 m2/s (333.16 K, 15000 kPa); 1.08e-08 m2/s (333.16 K, 20000 kPa). For the same compound, the binary diffusion coefficient came out at 9.59e-09 m2/s (333.16 K, 25000 kPa); 8.92e-09 m2/s (333.16 K, 30000 kPa); 8.29e-09 m2/s (333.16 K, 35000 kPa).
In the case of `CCOC(=O)c1ccccc1` [ethyl benzoate] + O=C=O, the binary diffusion coefficient is, setting by setting: (313.16 K, 15000 kPa) 1.05e-08 m2/s; (313.16 K, 20000 kPa) 8.06e-09 m2/s; (313.16 K, 25000 kPa) 7.53e-09 m2/s; (313.16 K, 30000 kPa) 6.82e-09 m2/s; (313.16 K, 35000 kPa) 6.7e-09 m2/s; (323.16 K, 15000 kPa) 1.3e-08 m2/s. For the same compound, the binary diffusion coefficient reads like this: (323.16 K, 20000 kPa) 1.01e-08 m2/s; (323.16 K, 25000 kPa) 8.65e-09 m2/s; (323.16 K, 30000 kPa) 7.82e-09 m2/s; (323.16 K, 35000 kPa) 7.25e-09 m2/s; (333.16 K, 15000 kPa) 1.49e-08 m2/s; (333.16 K, 20000 kPa) 1.19e-08 m2/s. In addition, the binary diffusion coefficient came to 9.82e-09 m2/s (333.16 K, 25000 kPa); 8.78e-09 m2/s (333.16 K, 30000 kPa); 8.36e-09 m2/s (333.16 K, 35000 kPa).
